In US9221875B2, “Amphiphilic peptides for treatment of keratitis” (Agency for Science, Technology and Research, priority 2013, dated 2015):
Values after ≈ are worked out from the molar mass of the structure shown. Read-outs that look alike come from different tables or passages of the source. Marks after values point to notes of the source that are not given here. Square brackets hold non-standard residues; d marks the D form. Peptide text beside a SMILES is read from it.

Columns and labels:
C. albicans [1] = system: C. albicans
[2] = system: clinically isolated Mycobacterium tuberculosis
E. coli [3] = settings: 18 h
[4] = system: 5 microorganisms tested (S. epidermidis, S. aureus, E. coli, P. aeruginosa, C. albicans); test: Mean MIC over the panel and selectivity index (Example 2)
S. epidermidis [5] = settings: 18 h
rabbit red blood cells = assay type: cell-based; settings: red cells of rabbit, 1 h
S. aureus [6] = settings: 18 h
P. aeruginosa [7] = settings: 18 h
E. coli [8] = assay type: cell-based, Escherichia coli
[9] = system: 5 microorganisms tested (S. epidermidis, S. aureus, E. coli, P. aeruginosa, C. albicans); test: Mean MIC over the panel and selectivity index (Example 1); assay type: cell-based
Protocol: Red blood cells suspension incubated with PBS was used as negative control.

C. albicans [10] = settings: 42 h
S. aureus [11] = settings: 18 h; remark: listed apart in the source
E. coli [12] = settings: 18 h; remark: listed apart in the source
P. aeruginosa [13] = settings: 18 h; remark: listed apart in the source
S. epidermidis [14] = settings: 18 h; remark: listed apart in the source
C. albicans keratitis = test: Contact lens-associated C. albicans keratitis mouse model
mice = settings: reported values; cited from earlier work
[15] = topical eye drops, peptides 3000 mg/L, amphotericin B 1000 mg/L

Row | Compound | MIC C. albicans (C. albicans [1]) | MIC E. coli (E. coli [3]) | MIC S. aureus (S. aureus [6]) | MIC P aeruginosa (P. aeruginosa [7]) | GM, geometric mean of MIC values for the 5 microorganisms tested [9] | MIC C. albicans (C. albicans [10]) | MIC S. aureus (S. aureus [11]) | MIC E. coli (E. coli [12]) | MIC P. aeruginosa (P. aeruginosa [13]) | MIC S. epidermidis (S. epidermidis [14]) | also measured
1 | CC[C@H](C)[C@H](N)C(=O)N[C@@H](CCCNC(=N)N)C(=O)N[C@H](C(=O)N[C@H](CCCCN)C(=O)N[C@H](C(=O)N[C@H](CCCNC(=N)N)C(=O)N[C@H](C(=O)N[C@@H](CCCCN)C(N)=O)[C@@H](C)CC)[C@@H](C)CC)[C@@H](C)CC [IK8-2D, IRIkIrIK-NH2] (H-IRI[dK]I[dR]IK-NH2; N-terminus assumed) | 3.9 µg/mL (≈ 3.76 µM) | 15.6 µg/mL (≈ 15 µM) | 31.3 µg/mL (≈ 30.1 µM) | 7.8 µg/mL (≈ 7.51 µM) |  |  |  |  |  |  | MIC M. tuberculosis ([2]; strain number 1173): 62.5 µg/mL (≈ 60.2 µM); MIC M. tuberculosis ([2]; strain number 1177): 62.5 µg/mL (≈ 60.2 µM); MIC M. tuberculosis ([2]; strain number 1178): 62.5 µg/mL (≈ 60.2 µM); MIC M. tuberculosis ([2]; strain number 1179): 125 µg/mL (≈ 120 µM); GM, geometric mean of MIC values for the 5 microorganisms tested [4]: 12.5 µg/mL; MIC S. epidermidis (S. epidermidis [5]): 3.9 µg/mL (≈ 3.76 µM); HC10, haemolysis concentration 10%: lowest peptide concentration that induces ≧10% haemolysis (rabbit red blood cells): 1600 mg/L
2 | gentamicin sulfate |  |  |  |  |  |  |  |  |  |  | MICn/MIC0 (E. coli [8]; passage 2): 2; MICn/MIC0 (E. coli [8]; passage 6): 4
3 | CC[C@H](C)[C@H](N)C(=O)N[C@@H](CCCNC(=N)N)C(=O)N[C@H](C(=O)N[C@@H](CCCCN)C(=O)N[C@H](C(=O)N[C@@H](CCCNC(=N)N)C(=O)N[C@H](C(=O)N[C@@H](CCCCN)C(N)=O)C(C)C)[C@@H](C)CC)C(C)C [(IRVK)2-NH2] (H-IRVKIRVK-NH2; N-terminus assumed) |  |  |  |  | 78.1 µg/mL | 7.8 µg/mL (≈ 7.72 µM) | 250 µg/mL (≈ 247 µM) | 62.5 µg/mL (≈ 61.9 µM) | 62.5 µg/mL (≈ 61.9 µM) | 7.8 µg/mL (≈ 7.72 µM) | 
4 | CC[C@@H](C)[C@@H](N)C(=O)N[C@H](CCCNC(=N)N)C(=O)N[C@@H](C(=O)N[C@H](CCCCN)C(=O)N[C@@H](C(=O)N[C@H](CCCNC(=N)N)C(N)=O)[C@H](C)CC)[C@H](C)CC [IK6-all D, irikir-NH2] (H-[dI][dR][dI][dK][dI][dR]-NH2; N-terminus assumed) | 15.6 µg/mL (≈ 19.6 µM) | 62.5 µg/mL (≈ 78.4 µM) | 250 µg/mL (≈ 314 µM) | 125 µg/mL (≈ 157 µM) |  |  |  |  |  |  | GM, geometric mean of MIC values for the 5 microorganisms tested [4]: 113.3 µg/mL
5 | N=C(N)NCCC[C@H](NC(=O)[C@H](Cc1c[nH]c2ccccc12)NC(=O)[C@H](CCCCN)NC(=O)[C@H](Cc1c[nH]c2ccccc12)NC(=O)[C@H](CCCNC(=N)N)NC(=O)[C@@H](N)Cc1c[nH]c2ccccc12)C(=O)N[C@@H](Cc1c[nH]c2ccccc12)C(=O)N[C@@H](CCCCN)C(N)=O [(WRWK)2-NH2] (H-WRWKWRWK-NH2; N-terminus assumed) |  |  |  |  | 92.2 µg/mL | 250 µg/mL (≈ 188 µM) | 62.5 µg/mL (≈ 47 µM) | 15.6 µg/mL (≈ 11.7 µM) | 125 µg/mL (≈ 93.9 µM) | 7.8 µg/mL (≈ 5.86 µM) | 
6 | CC[C@@H](C)[C@@H](N)C(=O)N[C@H](CCCNC(=N)N)C(=O)N[C@@H](C(=O)N[C@H](CCCCN)C(=O)N[C@@H](C(=O)N[C@H](CCCNC(=N)N)C(=O)N[C@@H](C(=O)N[C@H](CCCCN)C(=O)N[C@@H](C(=O)N[C@H](CCCNC(=N)N)C(=O)N[C@@H](C(=O)N[C@H](CCCCN)C(N)=O)C(C)C)[C@H](C)CC)C(C)C)[C@H](C)CC)C(C)C [IK12-all D, irvkirvkirvk-NH2] (H-[dI][dR][dV][dK][dI][dR][dV][dK][dI][dR][dV][dK]-NH2; N-terminus assumed) | 31.3 µg/mL (≈ 20.8 µM) | 7.8 µg/mL (≈ 5.18 µM) | 7.8 µg/mL (≈ 5.18 µM) | 15.6 µg/mL (≈ 10.4 µM) |  |  |  |  |  |  | GM, geometric mean of MIC values for the 5 microorganisms tested [4]: 12.7 µg/mL; fold reduction in MIC values compared with the L-enantiomer ([4]; against the various bacteria): 2-4 fold; MIC S. epidermidis (S. epidermidis [5]): 1.0 µg/mL (≈ 0.664 µM); HC10, haemolysis concentration 10%: lowest peptide concentration that induces ≧10% haemolysis (rabbit red blood cells): >125^e) mg L^−1
7 | C[C@@H]1[C@H](O)[C@@H](C)/C=C/C=C/C=C/C=C/C=C/C=C/C=C/[C@H](O[C@@H]2O[C@H](C)[C@@H](O)[C@H](N)[C@@H]2O)C[C@@H]2O[C@](O)(C[C@@H](O)C[C@@H](O)[C@H](O)CC[C@@H](O)C[C@@H](O)CC(=O)O[C@H]1C)C[C@H](O)[C@H]2C(=O)O [amphotericin B, reference compound] |  |  |  |  |  |  |  |  |  |  | fungal cells eradicated from the biofilms compared to the untreated control group (C. albicans keratitis; C. albicans counts in mice cornea, agar plating): ~90%; depth of hyphal invasion into the cornea, PAS histology (C. albicans keratitis; [15]): reduced the maximal depth of hyphal invasion; resolution of the keratitis infection (eye appearance) (C. albicans keratitis; [15]): significant resolution of the keratitis infection; clinical scores of mice corneas (slit lamp) (C. albicans keratitis; topical eye drops, peptides 3000 mg/L, amphotericin B 1000 mg/L, P<0.01): significantly lower than that in the control group
8 | CC(C)[C@H](N)C(=O)N[C@@H](CCCNC(=N)N)C(=O)N[C@H](C(=O)N[C@@H](CCCCN)C(=O)N[C@H](C(=O)N[C@@H](CCCNC(=N)N)C(=O)N[C@H](C(=O)N[C@@H](CCCCN)C(N)=O)C(C)C)C(C)C)C(C)C [(VRVK)2-NH2] (H-VRVKVRVK-NH2; N-terminus assumed) |  |  |  |  |  | 15.6 µg/mL (≈ 15.9 µM) | >500 µg/mL | 250 µg/mL (≈ 255 µM) | >500 µg/mL | 62.5 µg/mL (≈ 63.6 µM) | 
9 | gramicidin |  |  |  |  |  |  |  |  |  |  | LD50 reported for comparator (mice): 1.5 mg/kg
10 | Polymyxin B [reference compound] |  |  |  |  | 41.4 µg/mL |  | 125 µg/mL | 2.0 µg/mL | 2.0 µg/mL | 15.6 µg/mL | MIC C. albicans (C. albicans [10]; room temperature): 62.5 µg/mL; LD50 reported for comparator (mice): 5.4 mg/kg
11 | CC[C@H](C)[C@H](N)C(=O)N[C@@H](CCCNC(=N)N)C(=O)N[C@H](C(=O)N[C@@H](CCCNC(=N)N)C(=O)N[C@H](C(=O)N[C@@H](CCCNC(=N)N)C(=O)N[C@H](C(=O)N[C@@H](CCCNC(=N)N)C(N)=O)[C@@H](C)CC)[C@@H](C)CC)[C@@H](C)CC [(IRIR)2-NH2] (H-IRIRIRIR-NH2; N-terminus assumed) |  |  |  |  | 13.3 µg/mL | 15.6 µg/mL (≈ 14.3 µM) | 31.3 µg/mL (≈ 28.6 µM) | 7.8 µg/mL (≈ 7.13 µM) | 7.8 µg/mL (≈ 7.13 µM) | 3.9 µg/mL (≈ 3.56 µM) | 
12 | N=C(N)NCCC[C@H](NC(=O)[C@H](Cc1ccccc1)NC(=O)[C@H](CCCCN)NC(=O)[C@H](Cc1ccccc1)NC(=O)[C@H](CCCNC(=N)N)NC(=O)[C@@H](N)Cc1ccccc1)C(=O)N[C@@H](Cc1ccccc1)C(=O)N[C@@H](CCCCN)C(N)=O [(FRFK)2-NH2] (H-FRFKFRFK-NH2; N-terminus assumed) |  |  |  |  | 79.7 µg/mL | 62.5 µg/mL (≈ 53.2 µM) | 250 µg/mL (≈ 213 µM) | 15.6 µg/mL (≈ 13.3 µM) | 62.5 µg/mL (≈ 53.2 µM) | 7.8 µg/mL (≈ 6.64 µM) | 
13 | CC[C@@H](C)[C@@H](N)C(=O)N[C@@H](C(=O)N[C@H](CCCNC(=N)N)C(=O)N[C@H](CCCCN)C(=O)N[C@@H](C(=O)N[C@@H](C(=O)N[C@H](CCCNC(=N)N)C(=O)N[C@H](CCCCN)C(N)=O)[C@H](C)CC)[C@H](C)CC)[C@H](C)CC [Control-all D, iirkiirk-NH2] (H-[dI][dI][dR][dK][dI][dI][dR][dK]-NH2; N-terminus assumed) | 250 µg/mL (≈ 241 µM) | >500 µg/mL | >500 µg/mL | >500 µg/mL |  |  |  |  |  |  | MIC S. epidermidis (S. epidermidis [5]): >500 µg/mL; HC10, haemolysis concentration 10%: lowest peptide concentration that induces ≧10% haemolysis (rabbit red blood cells): >2000 mg/L
